A short description of series [1]: Antiosteoclast activity in ICR mouse osteoblast like cells co-cultured with bone marrow cells assessed as effect on 1-alpha,25(OH)2D3-induced TRAP-positive osteoclast like multinucleated cell formation at 20 uM after 6 days medium replaced every 2 days relative to control. Type of series: functional.
Series [2] in a line: Cytotoxicity against ICR mouse osteoblast like cells assessed as cell viability at 2 uM after 4 days drug removal after 2 days by MTT assay relative to control. Type of series: cell-based. The settings on record: read-out: Activity. For orientation: Formazan colour is commonly taken as a measure of viable cells.
Series [3] in a line: Antiosteoclast activity in ICR mouse osteoblast like cells co-cultured with bone marrow cells assessed as recovery of 1-alpha,25(OH)2D3-induced TRAP-positive osteoclast like multinucleated cell formation at 2 uM after 6 days drug removal after 2 days relative to control. Type of series: functional.
Series [4] can be described thus: Antiosteoclast activity in ICR mouse osteoblast like cells co-cultured with bone marrow cells assessed as effect on 1-alpha,25(OH)2D3-induced TRAP-positive osteoclast like multinucleated cell formation at 200 uM after 6 days medium replaced every 2 days relative to control. Type of series: functional.
A short description of series [5]: Antiosteoclast activity in ICR mouse osteoblast like cells co-cultured with bone marrow cells assessed as recovery of 1-alpha,25(OH)2D3-induced TRAP-positive osteoclast like multinucleated cell formation at 20 uM after 6 days drug removal after 2 days relative to control. Type of series: functional.
Series [6] in a line: Antiosteoclast activity in ICR mouse osteoblast like cells co-cultured with bone marrow cells assessed as effect on 1-alpha,25(OH)2D3-induced TRAP-positive osteoclast like multinucleated cell formation at 2 uM after 6 days medium replaced every 2 days relative to control. Type of series: functional.

The text below walks through data of ChEMBL document CHEMBL1152890, “Synthesis and evaluation of a novel series of heterocyclic oleanolic acid derivatives with anti-osteoclast formation activity” (Eur J Med Chem, 2009).

Each structure is given as a SMILES string.

`COC(=O)CNC(=O)[C@]12CCC(C)(C)C[C@H]1C1=CC[C@@H]3[C@@]4(C)CCC(=O)C(C)(C)[C@@H]4CC[C@@]3(C)[C@]1(C)CC2`: the Activity in series [1] was found to be 0%; in series [3], 73.9%; in series [4] it was 31.7%; in series [5], 41.3%; in series [6], 27.2%. Moreover, in series [2], the viability at 96 h, 2 µM worked out at 141%.
For the compound `CC1(C)CC[C@]2(C(=O)O)CC[C@]3(C)C(=CC[C@@H]4[C@@]5(C)Cc6c([nH]c7ccc(Cl)cc67)C(C)(C)[C@@H]5CC[C@]43C)[C@@H]2C1`, the Activity in series [1] stood at 0%; in series [3] it was 73.3%; in series [4] it was 99.5%; in series [5], 0%; in series [6], 13%. Also, the viability at 96 h, 2 µM in series [2] came out at 132%.
On to `COC(=O)[C@@H](NC(=O)[C@]12CCC(C)(C)C[C@H]1C1=CC[C@@H]3[C@@]4(C)Cc5nccnc5C(C)(C)[C@@H]4CC[C@@]3(C)[C@]1(C)CC2)C(C)C`, for which the Activity in series [1] is 27.8%; in series [3], 77.6%; in series [4], 78.4%; in series [5] it was 73.1%; in series [6] it was 59.8%. Also, the viability at 96 h, 2 µM in series [2] came out at 142%.
Turning to `CC1(C)CC[C@]2(C(=O)O)CC[C@]3(C)C(=CC[C@@H]4[C@@]5(C)Cc6cc7ccccc7nc6C(C)(C)[C@@H]5CC[C@]43C)[C@@H]2C1`, the Activity in series [1] stood at 33.2%; in series [3], 73%; in series [4], 97.2%; in series [5] it was 18.9%; in series [6], 39.2%. For the same compound, the viability at 96 h, 2 µM in series [2] is 134%.
For the compound `CC[C@H](C)[C@H](NC(=O)[C@]12CCC(C)(C)C[C@H]1C1=CC[C@@H]3[C@@]4(C)Cc5nccnc5C(C)(C)[C@@H]4CC[C@@]3(C)[C@]1(C)CC2)C(=O)O`, the Activity in series [1] turned out to be 73.7%; in series [3], 81.3%; in series [4] it was 52.6%; in series [6], 16.2%. Moreover, the viability at 96 h, 2 µM in series [2] is 109%.
The like results for `CC(C)[C@H](NC(=O)[C@]12CCC(C)(C)C[C@H]1C1=CC[C@@H]3[C@@]4(C)Cc5nc6ccccc6nc5C(C)(C)[C@@H]4CC[C@@]3(C)[C@]1(C)CC2)C(=O)O` were, in that order, 42.8%, 70.6%, 57.5%, 47.3% and 128%.
